Experiment: xn = mol fraction of the nth substance listed

CCCCBr + CC(C)(C)O
viscosity [mPa·s], 101.33 kPa
Conditions	x2 = 0.0988	x2 = 0.197	x2 = 0.3014	x2 = 0.4101	x2 = 0.5017	x2 = 0.5982	x2 = 0.7029	x2 = 0.7982	x2 = 0.8931
298.15 K	0.597	0.612	0.643	0.692	0.798	0.926	1.148	1.509	2.232
303.15 K	0.564	0.576	0.602	0.642	0.736	0.839	1.018	1.302	1.841
308.15 K	0.534	0.54	0.563	0.598	0.679	0.763	0.909	1.134	1.543
313.15 K	0.508	0.511	0.529	0.557	0.632	0.7	0.817	0.995	1.311
318.15 K	0.494	0.482	0.497	0.521	0.581	0.638	0.737	0.882	1.127

COCCO + CC(C)(C)O
Conditions	viscosity [mPa·s]
303.15 K, 101.3 kPa, x1 = 0.1011	2.892
303.15 K, 101.3 kPa, x1 = 0.1977	2.538
303.15 K, 101.3 kPa, x1 = 0.2694	2.324
303.15 K, 101.3 kPa, x1 = 0.3774	2.043
303.15 K, 101.3 kPa, x1 = 0.4851	1.831
303.15 K, 101.3 kPa, x1 = 0.6774	1.579
303.15 K, 101.3 kPa, x1 = 0.745	1.523
303.15 K, 101.3 kPa, x1 = 0.849	1.456
303.15 K, 101.3 kPa, x1 = 0.9028	1.427
308.15 K, 101.33 kPa, x1 = 0.119	2.241
308.15 K, 101.33 kPa, x1 = 0.2504	1.929
308.15 K, 101.33 kPa, x1 = 0.3687	1.713
308.15 K, 101.33 kPa, x1 = 0.5096	1.527
308.15 K, 101.33 kPa, x1 = 0.6441	1.402
308.15 K, 101.33 kPa, x1 = 0.7218	1.35
308.15 K, 101.33 kPa, x1 = 0.8035	1.298
308.15 K, 101.33 kPa, x1 = 0.9026	1.242

CC(O)=S + CC(C)=O
298.1 K, 101 kPa
Conditions	viscosity [mPa·s]
x1 = 0.2	0.405
x1 = 0.4	0.479
x1 = 0.5	0.511
x1 = 0.6	0.551
x1 = 0.8	0.624

CCCC(=O)O + CC(C)=O
viscosity [mPa·s], 101 kPa
Conditions	x1 = 0.0996	x1 = 0.1883	x1 = 0.3023	x1 = 0.3759	x1 = 0.5144	x1 = 0.5977	x1 = 0.7009	x1 = 0.7989	x1 = 0.9016	x1 = 0.9275
298.15 K	0.3862	0.4576	0.5666	0.6477	0.8181	0.9307	1.071	1.216	1.361	1.408
308.15 K	0.351	0.4131	0.5047	0.5741	0.7153	0.8095	0.9246	1.041	1.158	1.197
318.15 K	0.3183	0.3666	0.4489	0.5135	0.6265	0.7078	0.7969	0.8942	0.9947	1.018

CCOC(=O)C(=O)OCC + CC(C)=O
303.15 K, 101 kPa
Conditions	viscosity [mPa·s]
x1 = 0.0571	0.381
x1 = 0.1199	0.487
x1 = 0.1893	0.599
x1 = 0.2664	0.715
x1 = 0.3527	0.844
x1 = 0.4497	0.979
x1 = 0.5602	1.123
x1 = 0.6858	1.274
x1 = 0.8308	1.453

COCCO + CC(C)=O
viscosity [mPa·s], 101.33 kPa
Conditions	293.15 K	298.15 K	303.15 K
x1 = 0.0508	0.373	0.356	0.342
x1 = 0.1006	0.439	0.416	0.397
x1 = 0.1509	0.507	0.477	0.453
x1 = 0.2015	0.563	0.527	0.5
x1 = 0.2496	0.613	0.572	0.541
x1 = 0.2998	0.652	0.607	0.574
x1 = 0.351	0.688	0.64	0.603
x1 = 0.3995	0.726	0.673	0.632
x1 = 0.4503	0.767	0.709	0.663
x1 = 0.5006	0.818	0.753	0.7
x1 = 0.5504	0.875	0.804	0.742
x1 = 0.6007	0.941	0.861	0.79
x1 = 0.6496	1.012	0.923	0.845
x1 = 0.6998	1.09	0.991	0.905
x1 = 0.7502	1.17	1.062	0.969
x1 = 0.8004	1.248	1.132	1.033
x1 = 0.8511	1.333	1.209	1.106
x1 = 0.8999	1.419	1.287	1.179
x1 = 0.9503	1.542	1.398	1.278
